Measured values taken from publication PMC9934367, “Functional impact of subunit composition and compensation on Drosophila melanogaster nicotinic receptors–targets of neonicotinoids” (PLOS Genetics, 2023).

System: D. melanogaster nAChRs
Assay: Comparison of agonist activity between nAChRs expressed in X. laevis oocytes (one-way ANOVA, Kruskal-Wallis)
Assay type: cell-based
How it was run: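 D. melanogaster nAChR subunits and co-factors expressed in X. laevis oocytes by cRNA injection, recorded after 3–4 days by two-electrode voltage clamp at −100 mV in saline with 0.5 μM atropine. Peak currents fitted to a Hill equation for EC50; pEC50 differences tested by one-way ANOVA or Kruskal-Wallis.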

[1] = Dα1/Dβ1/Dβ2 vs. Dα1/Dα3/Dβ1/Dβ2
[2] = Dα1/Dβ1/Dβ2 vs. Dα2/Dα3/Dβ1/Dβ2
[3] = Dα1/Dβ1 vs. Dα1/Dα2/Dα3/Dβ1/Dβ2
[4] = Dα2/Dα3/Dβ1/Dβ2 vs. Dα1/Dα2/Dα3/Dβ1/Dβ2
[5] = Dα2/Dα3/Dβ1 vs. Dα1/Dα2/Dα3/Dβ1
[6] = Dα2/Dα3/Dβ1 vs. Dα1/Dα2/Dα3/Dβ1/Dβ2
[7] = Dα2/Dα3/Dβ1 vs. Dα1/Dα2/Dβ1/Dβ2
[8] = Dα2/Dα3/Dβ1 vs. Dα1/Dα3/Dβ1/Dβ2
[9] = Dα2/Dα3/Dβ1 vs. Dα2/Dα3/Dβ1/Dβ2
[10] = Dα3/Dβ1/Dβ2 vs. Dα1/Dα2/Dα3/Dβ1/Dβ2
[11] = Dα3/Dβ1/Dβ2 vs. Dα1/Dα2/Dβ1/Dβ2
[12] = Dα3/Dβ1/Dβ2 vs. Dα1/Dα3/Dβ1/Dβ2
[13] = Dα3/Dβ1/Dβ2 vs. Dα2/Dα3/Dβ1/Dβ2
[14] = Dα3/Dβ1 vs. Dα1/Dα2/Dα3/Dβ1/Dβ2

SMILES: CN/C(=N\[N+](=O)[O-])NCc1cnc(Cl)s1 [Clothianidin, clothianidin]
- Difference of Imax values, nAChRs compared [1]: -0.324
- Difference of pEC50 values, nAChRs compared [1]: -0.76
- Difference of Imax values, nAChRs compared [2]: -0.274
- Difference of pEC50 values, nAChRs compared [2]: -0.65
- Difference of Imax values, nAChRs compared (Dα1/Dβ1/Dβ2 vs. Dα3/Dβ1/Dβ2): -0.132
- Difference of pEC50 values, nAChRs compared (Dα1/Dβ1/Dβ2 vs. Dα3/Dβ1/Dβ2): -0.82
- Difference of Imax values, nAChRs compared (Dα1/Dβ1 vs. Dα1/Dα2/Dα3/Dβ1): -0.309
- Difference of pEC50 values, nAChRs compared (Dα1/Dβ1 vs. Dα1/Dα2/Dα3/Dβ1): 0.58
- Difference of Imax values, nAChRs compared [3]: -0.304
- Difference of pEC50 values, nAChRs compared [3]: 0.54
- Difference of Imax values, nAChRs compared (Dα1/Dβ1 vs. Dα1/Dα2/Dβ1): -0.191
- Difference of pEC50 values, nAChRs compared (Dα1/Dβ1 vs. Dα1/Dα2/Dβ1): 2.06
- Difference of Imax values, nAChRs compared (Dα1/Dβ1 vs. Dα1/Dα2/Dβ1/Dβ2): -0.292
- Difference of pEC50 values, nAChRs compared (Dα1/Dβ1 vs. Dα1/Dα2/Dβ1/Dβ2): 0.82
- Difference of Imax values, nAChRs compared (Dα1/Dβ1 vs. Dα1/Dα3/Dβ1): -0.119
- Difference of pEC50 values, nAChRs compared (Dα1/Dβ1 vs. Dα1/Dα3/Dβ1): -0.07
- Difference of Imax values, nAChRs compared (Dα1/Dβ1 vs. Dα1/Dα3/Dβ1/Dβ2): -0.176
- Difference of pEC50 values, nAChRs compared (Dα1/Dβ1 vs. Dα1/Dα3/Dβ1/Dβ2): -0.27
- Difference of Imax values, nAChRs compared (Dα1/Dβ1 vs. Dα1/Dβ1/Dβ2): 0.148
- Difference of pEC50 values, nAChRs compared (Dα1/Dβ1 vs. Dα1/Dβ1/Dβ2): 0.49
- Difference of Imax values, nAChRs compared (Dα1/Dβ1 vs. Dα2/Dα3/Dβ1): -0.374
- Difference of pEC50 values, nAChRs compared (Dα1/Dβ1 vs. Dα2/Dα3/Dβ1): 0.32
- Difference of Imax values, nAChRs compared (Dα1/Dβ1 vs. Dα2/Dα3/Dβ1/Dβ2): -0.126
- Difference of pEC50 values, nAChRs compared (Dα1/Dβ1 vs. Dα2/Dα3/Dβ1/Dβ2): -0.16
- Difference of Imax values, nAChRs compared (Dα1/Dβ1 vs. Dα3/Dβ1): -0.183
- Difference of pEC50 values, nAChRs compared (Dα1/Dβ1 vs. Dα3/Dβ1): -0.41
- Difference of Imax values, nAChRs compared (Dα1/Dβ1 vs. Dα3/Dβ1/Dβ2): 0.016
- Difference of pEC50 values, nAChRs compared (Dα1/Dβ1 vs. Dα3/Dβ1/Dβ2): -0.33
- Difference of Imax values, nAChRs compared [4]: -0.178
- Difference of pEC50 values, nAChRs compared [4]: 0.70
- Difference of Imax values, nAChRs compared [5]: 0.065
- Difference of pEC50 values, nAChRs compared [5]: 0.26
- Difference of Imax values, nAChRs compared [6]: 0.070
- Difference of pEC50 values, nAChRs compared [6]: 0.22
- Difference of Imax values, nAChRs compared [7]: 0.082
- Difference of pEC50 values, nAChRs compared [7]: 0.50
- Difference of Imax values, nAChRs compared [8]: 0.198
- Difference of pEC50 values, nAChRs compared [8]: -0.59
- Difference of Imax values, nAChRs compared (Dα2/Dα3/Dβ1 vs. Dα1/Dβ1/Dβ2): 0.522
- Difference of pEC50 values, nAChRs compared (Dα2/Dα3/Dβ1 vs. Dα1/Dβ1/Dβ2): 0.17
- Difference of Imax values, nAChRs compared [9]: 0.248
- Difference of pEC50 values, nAChRs compared [9]: -0.48
- Difference of Imax values, nAChRs compared (Dα2/Dα3/Dβ1 vs. Dα3/Dβ1/Dβ2): 0.390
- Difference of pEC50 values, nAChRs compared (Dα2/Dα3/Dβ1 vs. Dα3/Dβ1/Dβ2): -0.65
- Difference of Imax values, nAChRs compared [10]: -0.320
- Difference of pEC50 values, nAChRs compared [10]: 0.87
- Difference of Imax values, nAChRs compared [11]: -0.308
- Difference of pEC50 values, nAChRs compared [11]: 1.15
- Difference of Imax values, nAChRs compared [12]: -0.192
- Difference of pEC50 values, nAChRs compared [12]: 0.06
- Difference of Imax values, nAChRs compared [13]: -0.142
- Difference of pEC50 values, nAChRs compared [13]: 0.17
- Difference of Imax values, nAChRs compared (Dα3/Dβ1 vs. Dα1/Dα2/Dα3/Dβ1): -0.126
- Difference of pEC50 values, nAChRs compared (Dα3/Dβ1 vs. Dα1/Dα2/Dα3/Dβ1): 0.99
- Difference of Imax values, nAChRs compared [14]: -0.121
- Difference of pEC50 values, nAChRs compared [14]: 0.95
- Difference of Imax values, nAChRs compared (Dα3/Dβ1 vs. Dα1/Dα2/Dβ1): -0.008
- Difference of pEC50 values, nAChRs compared (Dα3/Dβ1 vs. Dα1/Dα2/Dβ1): 2.47
- Difference of Imax values, nAChRs compared (Dα3/Dβ1 vs. Dα1/Dα2/Dβ1/Dβ2): -0.109
- Difference of pEC50 values, nAChRs compared (Dα3/Dβ1 vs. Dα1/Dα2/Dβ1/Dβ2): 1.23
- Difference of Imax values, nAChRs compared (Dα3/Dβ1 vs. Dα1/Dα3/Dβ1): 0.064
- Difference of pEC50 values, nAChRs compared (Dα3/Dβ1 vs. Dα1/Dα3/Dβ1): 0.34
- Difference of Imax values, nAChRs compared (Dα3/Dβ1 vs. Dα1/Dα3/Dβ1/Dβ2): 0.007
- Difference of pEC50 values, nAChRs compared (Dα3/Dβ1 vs. Dα1/Dα3/Dβ1/Dβ2): 0.14
- Difference of Imax values, nAChRs compared (Dα3/Dβ1 vs. Dα1/Dβ1/Dβ2): 0.331
- Difference of pEC50 values, nAChRs compared (Dα3/Dβ1 vs. Dα1/Dβ1/Dβ2): 0.90
- Difference of Imax values, nAChRs compared (Dα3/Dβ1 vs. Dα2/Dα3/Dβ1): -0.191
- Difference of pEC50 values, nAChRs compared (Dα3/Dβ1 vs. Dα2/Dα3/Dβ1): 0.73
- Difference of Imax values, nAChRs compared (Dα3/Dβ1 vs. Dα2/Dα3/Dβ1/Dβ2): 0.057
- Difference of pEC50 values, nAChRs compared (Dα3/Dβ1 vs. Dα2/Dα3/Dβ1/Dβ2): 0.25
- Difference of Imax values, nAChRs compared (Dα3/Dβ1 vs. Dα3/Dβ1/Dβ2): 0.199
- Difference of pEC50 values, nAChRs compared (Dα3/Dβ1 vs. Dα3/Dβ1/Dβ2): 0.08
